Measured values as given in US9464106B2, “Oligonucleotides useful for detecting and analyzing nucleic acids of interest” (Exiqon A/S, priority 2002, dated 2016).
l = locked nucleic acid (LNA); [5mC] = 5-methylcytosine; d = 2'-deoxy (DNA)

How the values were obtained:
[1] = system: 3′-ACGACCAC-5′ / 3′-ACGGCCAC-5′; assay: Tm of LNA:DNA and DNA:DNA 8-mer duplexes, perfect match and single mismatch; type: binding; details: for ΔTm: perfect match minus single mismatch; for Tm of LNA:DNA Duplexes, Perfect match: target 3′-ACGACCAC-5′; for Tm of LNA:DNA Duplexes, Single mismatch: target 3′-ACGGCCAC-5′
From the text: It is often difficult to design probes and primers with the same range of melting temperature due to the variance in A/T and G/C content of the probing sites. Highly A/T rich regions typically give lower Tm values. Furthermore, if single mismatches are to be resolved, G/T mismatches are known to contribute little to ΔTm. As discussed above, the use of LNA is a desirable way to solve problems related to multiplex use of primers and probes. LNA offers the possibility to adjust Tm and increase the ΔTm at the same time. LNA increases Tm with 4-8° C./substitution and increases ΔTm in many cases (Table 9).

[2] = system: C. elegans genes relevant for general stress response and metabolism of toxic compounds; assay: Expression profiling on C. elegans LNA tox oligoarray, beta-naphthoflavone and primaquine; type: in vivo, Caenorhabditis elegans; details: cRNA target; 24 hours
Experimental: For all cultures the sample is divided into two, and one half of the sample is used as the control, the other as the treated sample. Worm samples are harvested and sucrose cleaned by standard methods. For heat shock treatment: the heat shock sample is added to S-media preheated to 33° C. in a 1 L flask suspended in a water bath at 33° C., the other sample is added to a 1 L flask with S-media at 25° C. Both samples are shaken at approximately 100 rpm. for an hour. For β-naphthoflavone and primaquine treatment: 0.5 mL of 5 mg/mL β-naphthoflavone in DMSO or 0.5 mL of 20 mg/mL primaquine in DMSO were added to each 500 mL volume of S-media culture after 28 hours of growth from L1. At the same time 0.5 mL of DMSO was added to the control. Incubation was for 24 hours. Samples are then harvested by centrifugation at 3000×g suspended in RNALater™ (Ambion) and immediately frozen in liquid nitrogen.
First and second strand cDNA syntheses were made using the MessageAmp™ aRNA Kit (Ambion) according to suppliers' instructions. Five microgram of C. elegans total RNA was used as template for cDNA syntheses. Syntheses of fluorescent cRNA were made according to the MessageAmp™ aRNA Kit (Ambion) protocol with minor modifications. Cy3™-UTP or Cy5™-UTP (6 μl of a 5 mM solution Amersham Biosciences, USA) replaced biotin-CTP. The final concentration of ATP, CTP, and GTP was 7.5 mM whereas the concentration of UTP was reduced to 4.9 mM.
The arrays were hybridized overnight using the following protocol. The Cy3™ and Cy5™-labelled cDNA or cRNA samples were combined in one tube followed by addition of 3 μL 20×SSC (3×SSC final), 0.5 μL 1 M HEPES, pH 7.0 (25 mM final), 25 μg yeast tRNA (1.25 μg/μL final), 0.6 μL 10% SDS (0.3% final), and DEPC-treated water to 20 μL final volume. The labelled cDNA target sample was filtered in a Millipore 0.22 micron spin column according to the manufacturer's instructions (Millipore, USA), and the probe was denatured by incubating the reaction at 100° C. for 2 min. The sample was cooled at 20-25° C. for 5 min. by spinning at max speed in a microcentrifuge. A LifterSlip (Erie Scientific Company, USA) was carefully placed on top of the microarray spotted on Immobilizer™ MicroArray Slide and the hybridization mixture was applied to the array from the side. An aliquot of 30 μL of 3×SSC was added to both ends of the hybridization chamber, and the Immobilizer™ MicroArray Slide was placed in the hybridization chamber. The chamber was sealed watertight and incubated at 65° C. for 16-18 hours submerged in a water bath. After hybridisation, the slide was removed carefully from the hybridization chamber and washed using the following protocol. The Lifterslip coverslip was washed off in 2×SSC, pH 7.0 containing 0.1% SDS at room temperature for 1 min., followed by washing of the microarrays subsequently in 1.0×SSC, pH 7.0 at room temperature for 1 min, and then in 0.2×SSC, pH 7.0 at room temperature for 1 min. Finally the slides were washed for 5 seconds in 0.05×SSC, pH 7.0. The slides were then dried by centrifugation in a swinging bucket rotor at approximately 200 G for 2 min. The slide is now ready for scanning.
Following washing and drying, the slides were scanned using a ScanArray 4000XL scanner (Perkin-Elmer Life Sciences, USA), and the array data were processed using the GenePix™ Pro 4.0 software package (Axon, USA). The data in each image was normalized so that the ratio of means of all of the features is equal to 1.

[3] = system: complementary single stranded DNA (3′-ctgNatcc); assay: Melting temperatures of DNA and LNA 8-mers containing inosine, 2,6-diaminopurine or 2-aminopurine against complementary DNA; type: binding; details: entries 8 and 11
human satellite-2 repeat = assay: FISH on metaphase chromosomes with satellite-2 LNA/DNA mixmers; type: binding; details: for FISH signals on chromosomes: 6.4 pmoles Cy3 labeled probe, 30 minutes at 37° C., simultaneous denaturation at 75° C. for 5 minutes; for FISH signals without a denaturation step: overnight hybridization
Experimental: Chromosome preparations were made by standard methods from peripheral lymphocyte cultures of normal males. Slides were prepared 1-4 days prior to an experiment and treated with RNAse (10 μg/μl) at 37° C. for one hour before hybridization. The 23 bp human satellite-2 repeat sequence, [NT], was used to prepare the […] different content and sequence order of LNA modifications (Table 19). All […] labeled in the 5' end with either Cy3 or biotin. Biotin amidite was purchased from Applied Biosystems and Cy3 amidite was purchased from Amersham Bioscience. […] FISH was carried out as described by […], Guven […], Turner Z. (1998) Not para-, not peri-, but centric inversion of chromosome 12. […] (1); with the following modifications including: […] In addition the effect of denaturation was also tested. Two alternative hybridization mixtures were used: 50% formamide/2×SSC (pH 7.0)/10% dextran sulphate or 2×SSC (pH 7.0)/10% dextran sulphate. Hybridization times included 30 min, 1 hr, 2 hrs, 3 hrs and overnight. Hybridization temperatures included: 37° C., 55° C., 60° C. and 72° C. Post washing was either as for standard FISH (1), or with 50% formamide/2×SSC at 60° C., or without formamide. Hybridization signals with biotin labeled LNA substituted oligonucleotide probes were visualized indirectly using two layers of fluorescein-labeled avidin (Vector Labs) linked by a biotinylated anti-avidin molecule, which amplified the signal 8-64 times. The hybridization of Cy3 labeled molecules however, was visualized directly after a short washing procedure. […] The whole procedure was carried out in the dark. The signals were visualized using a Leica DMRB epifluorescence microscope equipped with a SenSys charge-coupled device camera (Photometrics, Tucson, Ariz.), and IPLAB Spectrum Quips FISH software (Applied Imaging international Ltd, Newcastle, UK) within two days after hybridization.

[4] = system: DNA oligonucleotides (HNFas128A-2, Gluc53as-A); assay: Mismatch discrimination of chimeric LNA-DNA 12-mers containing LNA-A or LNA-D; type: binding
[5] = system: splice variant #1 and #2 transcripts spiked into C. elegans total RNA; assay: Splice variant ratio detection with merged LNA block capture probes (Example 9); type: binding; details: signal ratio KU007/KU008, Cy5, normalized

“5′-TGCTGGTG-3′ [DNA 8-mer, reference compound]” was tested, and the ΔTm [1] was 10 °C, the “Tm of LNA:DNA Duplexes, Perfect match” value [1] was 35 °C and the “Tm of LNA:DNA Duplexes, Single mismatch” value [1] was 25 °C.
In the case of 5′-TGCTGGTG-3′ [LNA 8-mer], the ΔTm [1] was 26 °C, the “Tm of LNA:DNA Duplexes, Perfect match” value [1] was 71 °C and the “Tm of LNA:DNA Duplexes, Single mismatch” value [1] was 45 °C.
For `COc1cc(NC(C)CCCN)c2ncccc2c1` (centres unmarked) [Primaquine, primaquine], the “Log2 transformed fold of change, ABC_F57C12.4” value [2] was −1.11, the “Log2 transformed fold of change, CYP_F14F7.2” value [2] was −1.24 and the “Log2 transformed fold of change, DC_W05G11.3” value [2] was 1.16. The “Log2 transformed fold of change, ER_26S” value [2] was −1.09, the “Log2 transformed fold of change, PPGB_F13D12.6” value [2] was 1.08 and the “Log2 transformed fold of change, RPL_K11H12.2” value [2] was 1.15.
With `O=c1cc(-c2ccccc2)oc2ccc3ccccc3c12` [beta-naphthoflavone, β-naphthoflavone] the “Log2 transformed fold of change, ABC_C34G6.4” value [2] was 1.01, the “Log2 transformed fold of change, CYP_C03G6.15” value [2] was 2.35 and the “Log2 transformed fold of change, CYP_C06B3.3” value [2] was 2.47. The “Log2 transformed fold of change, CYP_C49G7.8” value [2] was 2.40, the “Log2 transformed fold of change, CYP_F14F7.2” value [2] was −1.03 and the “Log2 transformed fold of change, CYP_K07C6.5” value [2] was 2.68. For the same compound, the “Log2 transformed fold of change, CYP_K09D9.2” value [2] was 2.14, the “Log2 transformed fold of change, ER_26S” value [2] was −1.01 and the “Log2 transformed fold of change, HSP_C47E8.5” value [2] was 1.17. For the same compound, the “Log2 transformed fold of change, HSP_F26D10.3” value [2] was 1.05, the “Log2 transformed fold of change, HSP_F43D9.4” value [2] was 1.27 and the “Log2 transformed fold of change, NAP_D2096.8” value [2] was 1.14. For the same compound, the “Log2 transformed fold of change, PPGB_F13D12.6” value [2] was 1.21, the “Log2 transformed fold of change, RAD_Y116A8C.133” value [2] was 1.13 and the “Log2 transformed fold of change, RPL_K11H12.2” value [2] was 1.42. For the same compound, the “Log2 transformed fold of change, Ubi_F25B5.4” value [2] was 1.37.
“(1R,3R,4R,7S)-7-(2-Cyanoethoxy(diisopropylamino)phosphinoxy)-1-(4,4′-dimethoxytrityloxymethyl)-3-(hyroxanthin-9-yl)-dioxabicyclo[2.2.1]heptane [compound 11]” was tested, and the “stabilization of the complementary duplex on replacement of one internal LNA-A by LNA-D” value [3] was 6.2 °C.
“ATtCcAtTcGaTtCcAtTcGaTc (as printed in the source, key not given here) [LNA-2]” was tested, and the “FISH signals on chromosomes” value (human satellite-2 repeat) was “signals on chromosomes 1, 16, 9 and 15” and the “FISH signals without a denaturation step” value (human satellite-2 repeat) was “giving the best signals”.
“aTTCcattcgATTccattcGATc (ATTCCATTCGATTCCATTCGATC; sugars from the 5' end dlllddddddlllddddddllld, backbone and methylation of C not given here; 5' end labelled with Cy3 or biotin) [LNA Blocks]” was tested, and the “FISH signals on chromosomes” value (human satellite-2 repeat) was “smaller signals on chromosome 1”.
With “aTtcCatTcgAtTccAttCgaTc (ATTCCATTCGATTCCATTCGATC; sugars from the 5' end dlddlddlddldlddlddlddld, backbone and methylation of C not given here; 5' end labelled with Cy3 or biotin) [LNA-3]” the “FISH signals on chromosomes” value (human satellite-2 repeat) was “bright signals on chromosomes 1, 16 and 9”.
In the case of “aTtccatTcgaTtccAttcgaTc (ATTCCATTCGATTCCATTCGATC; sugars from the 5' end dldddddldddldddldddddld, backbone and methylation of C not given here; 5' end labelled with Cy3 or biotin) [Dispersed LNA]”, the “FISH signals on chromosomes” value (human satellite-2 repeat) was “signals on chromosomes 1 and 16 only”.
In the case of “attccattcgattccattcgatc (ATTCCATTCGATTCCATTCGATC; chemistry not given here) [DNA oligo, reference compound]”, the “FISH signals on chromosomes” value (human satellite-2 repeat) was “no signals on any of the chromosomes” and the “FISH signals without a denaturation step” value (human satellite-2 repeat) was “no signals were obtained”.
With “cAmCtgGAmCtctt (CACTGGACTCTT; chemistry not given here)” the “ΔTm between singly mismatched and perfect duplexes” value ([4]; Gluc53as-A) was −10.9 °C, the “Tm with aagaggccagtg (singly mismatched)” value ([4]; Gluc53as-A, duplexes 2 μM) was 50.6 °C and the “Tm with aagagtccagtg (perfect)” value ([4]; Gluc53as-A, duplexes 2 μM) was 61.5 °C.
With “caacactgcccagaggttcaatcGATGTgtgataggatcagtgttcaggg (CAACACTGCCCAGAGGTTCAATCGATGTGTGATAGGATCAGTGTTCAGGG; sugars from the 5' end d23 l5 d22, backbone not given here; further chemistry not fully specified) [gene78.m01INS4_50_block]” the “Observed ratio (log2) with merged LNA block capture probes” value (from here on “Observed ratio (log2)”) [5] was −2.39.
For “caacactgcccagaggttcaatcGATmCmCgatgatcctaatgaaggcgccc (CAACACTGCCCAGAGGTTCAATCGATCCGATGATCCTAATGAAGGCGCCC; sugars from the 5' end d23 l5 d22, [5mC] at 27, 28, backbone not given here; further chemistry not fully specified) [gene78.m01INS3_50_block]”, the “Observed ratio (log2)” value [5] was 2.93.
For “gaaggcgaaggagactgctAATATcgataaatatgtgaaggaaatgcctg (as printed in the source, key not given here) [gene78.mINS403_50_block]”, the “Observed ratio (log2)” value [5] was −0.86.
“gene78.m0103: merged probe corresponding to the exon 01-exon 03 border (DNA CACAACACTGCCCAGAGGTTCAATCGATAAATATGTGAAGGAAATGCCTG; listed as DNA, chemistry not fully specified)” was tested, and the “Observed ratio (log2)” value [5] was −0.24.
In the case of “gtccagtatcgtccatcatAGTATcgataaatatgtgaaggaaatgcctg (as printed in the source, key not given here) [gene78.mINS303_50_block]”, the “Observed ratio (log2)” value [5] was 3.11.
For “tGtggGATGttg (TGTGGGATGTTG; chemistry not given here)”, the “ΔTm between singly mismatched and perfect duplexes” value ([4]; HNFas128A-2) was −15.1 °C, the “Tm with caacaacccaca (singly mismatched)” value ([4]; HNFas128A-2, duplexes 2 μM) was 45.9 °C and the “Tm with caacatcccaca (perfect)” value ([4]; HNFas128A-2, duplexes 2 μM) was 61.0 °C.
